# Like-named read-outs stand apart in the source and are kept apart here.
# Experiments:
# [1] = GL itself; cited from earlier work
# MCF-7 cells [2] = experiment: growth of MCF-7 cells in GL/HPR-containing media (Table II); type: cell-based, human; details: 5 days
# From the text: The values shown are the mean +/- ISE for three experiments counted in triplicates. The numbers in parenthesis indicate the number of free floating (mostly non viable) cells in the media.
# beta-glucuronidase = details: in cells, blood, cited from earlier work
# [3] = CGT-supplemented diet vs normal chow diet; cited from earlier work
# [4] = test system: 7,12-dimethylbenz(a)anthracene-induced mammary tumorigenesis; details: cited from earlier work
# [5] = weights of rats on diets (Example II, Table III); details: CGT 2%, RA 1.0 mmol/kg diet
# Experimental: (§1) The 13-cis-RA was dissolved in a vehicle consisting of ethanol:tricaprylin:1:4 (v/v) and 4% w/v α-tochopherol. The mixture was added to the meal at the rate of 25 ml/2 kg then stored in the dark at -20° C. […] The same amount of vehicle was also added to the control diet and to the diets containing glucarate. Beginning 5 weeks post DMBA treatment, the rats were examined (palpated) twice every week for mammary tumors. They were also weighed once weekly throughout the 20 week period of the experiment.
# [6] = test system: chemical induction of tumors in rodent skin, mammary glands, lung and liver; details: cited from earlier work
# [7] = test system: DMBA-induced mammary tumors; experiment: chemoprevention of DMBA-induced rat mammary carcinogenesis (Example II); type: in vivo, female Sprague Dawley rats
# Experimental: as §1
# [8] = weight gain of rats on CGT and HPR diets (FIG. 4); type: in vivo, female Sprague Dawley rats; details: prolonged feeding of diets containing CGT and HPR
# Experimental: (§2) They were maintained on the diets for approximately 4 mos., and were examined (palpated) for mammary tumors weekly. […] The retinoid (HPR) was first dissolved in 25 ml of a vehicle consisting of ethanol-tricaprylin-6% α-tocopherol, then thoroughly mixed with powdered rat chow.
# rat mammary tumors = experiment: rat mammary tumor chemoprevention and shrinkage, effective dietary levels; type: in vivo; details: for dietary level when used individually: alone
# [9] = test system: 7,12-dimethylbenz(a)anthracene-induced mammary tumors; experiment: DMBA-induced mammary tumor formation in female Sprague Dawley rats (Example I); type: in vivo; details: 1.0% CGT
# Experimental: as §2
# Protocol: 50 d old female S.D. rats received a single dose 75 mg/kg of
# with DMBA, then continued throughout the experiment.
# MCF-7 cells [10] = experiment: inhibition of MCF-7 breast cancer cell growth in culture (Example III); type: cell-based, human; details: for inhibition at 0.01 µM / inhibition at 0.1 µM / inhibition at 1 µM / inhibition at 10 µM: Homo sapiens, MCF7, read-out: inhibition of cell growth
# Experimental: The MCF-7 cell line was derived from a hormone-dependent metastatic breast cancer. It has retained several characteristics of differentiated mammary epithelium, Soule et al., J. Natl. Cancer Inst. 51:1409-1413 (1973), and the cells contain estrogen receptors. The MCF-7 cell line used was obtained from the OSU Cell Culture Service laboratory, but originated from the Michigan Cancer Foundation, Detroit, Mich. The MCF-7 cells were seeded at 1×10^3 cells/cm^2 in 35 mm wells containing MEM (Earle base medium) supplemented with MEM non-essential amino acids (1.0 mM), L-glutamic acid (2.0 mM), penicillin and streptomycin (100 ug/ml) and fetal calf serum (10%) as described in Ueda et al., Cancer 46:2203-2206, (1980). The cells are maintained at 37° C. in a humidified atmosphere of 5% CO2 /20% O2 with the growth medium replaced twice a week. The retinoids were dissolved in ethanol and added to the culture medium starting 24 hrs. after seeding. […] Glucarate concentrations varied from 10^-5 to 10^-8 M. Cell counts were done with a Coulter counter and viability of the cells was determined by the trypan blue exclusion method and also by their ability to resume growth after removal of inhibitory agents. Cytotoxicity was evaluated by exposing the MCF-7 cells to equimolar concentrations of the agents and examining viability after 6 days of treatment. All experiments were done in triplicate.
# In this experiment series glucarate as the soluble potassium salt and 13-cis-RA were evaluated, alone and in combination, for their ability to inhibit the growth of MCF-7 breast cancer cells in culture.
# The log transformed dose refers to the level in μM added to the medium as was varied from […] (0.01) μM to 10^-1 μM. The retinoid vehicle, ethanol, was added to all cultures and all values have been corrected for its slight inhibitory effect (7%).
# MCF-7 cells [11] = experiment: growth of human breast cancer cell line MCF-7, 7 days; type: cell-based; details: MCF7, 168 h, 0.1 μM HPR, within 7 days, read-out: growth, % of the control
# Experimental: When higher doses (2 mmol/kg diet) of HPR were used, growth arrest was followed within 5 to 10 days by 30% regression of the DMBA-induced mammary tumors. Also, HPR (0.1μM) inhibited the […] growth of the human breast cancer cell line (MCF-7) to 50% of the control within 7 days.
compound,measurement,setting,value
"O=C(O)[C@@H](O)[C@H]1OC(=O)[C@H](O)[C@H]1O [GL, D-glucaro-1,4-lactone]",absorption and clearance from the body,[1],too rapidly absorbed and cleared from the body
same,No. of viable cells,"MCF-7 cells [2]; GL 10^-4 M, control 60400 ± 2147",49480 ± 3160
same,activity at 1000 µM,"MCF-7 cells [2]; Homo sapiens, MCF7, 120 h, GL 10^-3 M, parenthesised, control 11, read-out: free floating cells, % of control",7%
same,viability at 1000 µM,"MCF-7 cells [2]; Homo sapiens, MCF7, 120 h, GL 10^-3 M, read-out: viable cells, % of control",54 ± 3%
same,activity at 100 µM,"MCF-7 cells [2]; Homo sapiens, MCF7, 120 h, GL 10^-4 M, parenthesised, control 11, read-out: free floating cells, % of control",6%
same,viability at 100 µM,"MCF-7 cells [2]; Homo sapiens, MCF7, 120 h, GL 10^-4 M, read-out: viable cells, % of control",82 ± 5%
same,inhibition of beta-glucuronidase,"beta-glucuronidase; urine and intestine, 4-lactone",potent beta-glucuronidase inhibitor
same,inhibition of beta-glucuronidase,beta-glucuronidase; urine and intestine,potent inhibitor of beta-glucuronidase
"O=C([O-])[C@@H](O)[C@@H](O)[C@H](O)[C@@H](O)C(=O)[O-].[Ca+2] [CGT, calcium glucarate]",food quantity and weight gain,[3],identical to those on the normal chow diet
same,"tumor induction, % of that in controls","[4]; 4% CGT diet, by 28 weeks",30%
same,tumor regression,[4]; chow diet supplemented with CGT,some tumors on the chow diet supplemented with CGT underwent regression
same,Weights of rats on diets,"[5]; 0 weeks on diet, control 177.2 +/-10.9",182.2 +/-8.8 gm
same,Weights of rats on diets,"[5]; 5 weeks on diet, control 218.3 +/-16.9",224.8 +/-11.6 gm
same,Weights of rats on diets,"[5]; 17 weeks on diet, control 247.0 +/-32.2",250.3 +/-14.2 gm
same,inhibition of chemical induction of tumors,"[6]; dietary, rodent skin, mammary glands, lung, liver",50-70%
same,effect on tumor incidence compared to control group,"[7]; 2% CGT, 64 mmol/kg diet (group II)",did not show any effect on tumor incidence
same,weight gain of rats,[8],did not affect weight gain
same,inhibition of beta-glucuronidase,"beta-glucuronidase; urine, intestine and liver",effective as inhibitors of beta-glucuronidase
same,dietary level when used individually,rat mammary tumors,128 mmol/kg
same,inhibition of tumors/rat,[9],9%
"2,4-di-0-acetyl-D-glucaro-1-lactone",inhibition of beta-glucuronidase,"beta-glucuronidase; urine, intestine and liver",effective as inhibitors of beta-glucuronidase
"CC1=C(/C=C/C(C)=C/C=C/C(C)=C\C(=O)O)C(C)(C)CCC1 [13-cis-RA, 13-cis-retinoic acid, reference compound]",inhibition at 0.01 µM,MCF-7 cells [10],2%
same,inhibition at 0.1 µM,MCF-7 cells [10],9.2%
same,inhibition at 1 µM,MCF-7 cells [10],12%
same,inhibition at 10 µM,MCF-7 cells [10],52.2%
same,inhibitory activity of retinoid alone,MCF-7 cells [10]; concentrations above 1.0 μM,significant inhibitory activity
same,effect on tumor incidence over controls,[7]; 1.0 mmol/kg diet 13-cis-RA (group III),"slight, but insignificant, enhancement of tumor incidence"
"O=C(O)[C@@H](O)[C@@H](O)[C@H](O)[C@@H](O)C(=O)[O-].[K+] [GT, potassium hydrogen glucarate]",increase in inhibition of growth as a function of glucarate concentration,"MCF-7 cells [10]; 1000-fold range of glucarate, at 13-cis-RA 0.0, 0.1 and 1.0 μM",7-25%
same,inhibition at 0.01 µM,MCF-7 cells [10],0%
same,inhibition at 0.1 µM,MCF-7 cells [10],6%
same,inhibition at 1 µM,MCF-7 cells [10],6%
same,inhibition at 10 µM,MCF-7 cells [10],11%
same,inhibition of beta-glucuronidase,"beta-glucuronidase; urine, intestine and liver",effective as inhibitors of beta-glucuronidase
"CC1=C(/C=C/C(C)=C/C=C/C(C)=C/C(=O)Nc2ccc(O)cc2)C(C)(C)CCC1 [HPR, N-(4-hydroxyphenyl)retinamide, reference compound]",activity at 0.1 µM,MCF-7 cells [11],50%
same,activity at 0.05 µM,"MCF-7 cells [2]; Homo sapiens, MCF7, 120 h, HPR 5 × 10^-8 M, parenthesised, control 11, read-out: free floating cells, % of control",7%
same,viability at 0.05 µM,"MCF-7 cells [2]; Homo sapiens, MCF7, 120 h, HPR 5 × 10^-8 M, read-out: viable cells, % of control",56 ± 4%
same,weight gain of rats,[8],did not affect weight gain
same,dietary level when used individually,rat mammary tumors,2.00 mmol/kg
same,minimum dosage consistent with maximum inhibition of carcinogenesis,rat mammary tumors; used alone,1.0 to 1.5 mmol/kg
"O=C(O)[C@H](O)[C@@H](O)[C@H](O)[C@H](O)CO [calcium gluconate, reference compound]",effect on tumor induction,[6]; equimolar calcium,no effect
